{"source": "paper PMC11845477", "about": "“Exploring the principles behind antibiotics with limited resistance” (Nature Communications, 2025)", "test_in_all_cases": "Frequency-of-resistance (FoR) assay, relative MIC of mutants", "key": {"[1]": {"test_system": "A. baumannii ATCC 17978 (SEN) and A. baumannii ATCC BAA-1605 (MDR)", "assay_type": "cell-based, Acinetobacter baumannii", "conditions": "for MIC: Acinetobacter baumannii, read-out: MIC of evolved line, Acinetobacter baumannii ATCC 17978 (AB-SEN)", "protocol": "(§1) The susceptibility of antibiotics to resistance development was evaluated in two strains of each bacterial species: a multidrug-resistant strain and an antibiotic-sensitive strain of Escherichia coli, Klebsiella pneumoniae, Acinetobacter baumannii, and Pseudomonas aeruginosa. To explore first-step resistance, we previously used a standard protocol for spontaneous frequency-of-resistance analysis (FoR assay) at multiple concentrations of each antibiotic[10],[28],[31]–[33]. […] For all other combinations, approximately 10^10 bacterial cells were exposed to one of each antibiotic on agar plates for two days at concentrations where the given strain is susceptible. We examined resistance levels by contrasting the minimum inhibitory concentration (MICs) of the mutated strains to the original wild-type bacterial strain (i.e., relative MIC).\n(§2) To estimate the frequency of spontaneous mutations that confer resistance in a microbial population, we conducted a frequency of resistance (FoR) assay following established protocols[10],[31]–[33]. […] Prior to plating, bacteria were grown overnight in MHB medium at 37 °C and 250 RPM, then centrifuged and washed in MHB. All experiments were performed in triplicate, and plates were incubated at 37 °C for 48 hours. Total colony-forming units (CFUs) were determined by plating appropriate dilutions onto antibiotic-free MHB agar. Resistance frequencies were calculated by dividing the number of resistant colonies by the initial viable cell count. From the plates with the highest antibiotic concentration, ten colonies were selected for MIC determination and whole-genome sequencing.\n(§3) A robotic liquid handling system was used to automatically prepare a 11 to 16-step serial dilution in 384-well microtiter plates (Greiner). A final concentration of 5 × 10^5 bacterial cells per mL were inoculated into each well containing 60 µL MHB medium. Bacterial cultures were incubated at 37 °C with continuous shaking (Infors shaker, 900 rpm with 3 mm throw) for 18 hours (2 replicates from each). Cell growth was monitored by measuring the optical density (OD600 values, using Biotek Synergy microplate reader). MIC was defined as the antibiotic concentration of complete growth inhibition (i.e., OD600 < 0.05). Relative MIC was calculated as follows:1 relativeMIC=MICevolved/MICancestor […]\n(§4) Supplementary Figure 3. Resistance levels following the frequency of resistance assay across bacterial strains. The level of resistance was measured as the fold change in relative MIC between evolved and ancestral strains. Data are grouped by bacterial strain (A. baumannii (AB), E. coli (EC), K. pneumoniae (KP), and P. aeruginosa (PA)) and categorized as either multidrug-resistant (MDR) or sensitive (SEN). Each data point represents a laboratory evolved line, and boxplots show the median, first and third quartiles, with whiskers indicating the 5th and 95th percentiles. […]\n(§5) analysis was performed using two-sided Dunn’s post-hoc test with Benjamini-Hochberg correction for multiple comparisons (**/ * indicates p < 0.01/ 0.05). For detailed information on antibiotic and bacterial species, see Supplementary Table 1. For mode of action groups, refer to Table 1. Source data are provided as a Source Data file."}, "[2]": {"test_system": "E. coli ATCC 25922 (SEN) and E. coli NCTC13846 (MDR)", "assay_type": "cell-based, Escherichia coli", "conditions": "for MIC: Escherichia coli, read-out: MIC of evolved line, Escherichia coli ATCC 25922 (EC-SEN)", "protocol": "as §1, §2, §3, §4, §5"}, "[3]": {"test_system": "K. pneumoniae ATCC 10031 (SEN) and K. pneumoniae ATCC 700603 (MDR)", "assay_type": "cell-based, Klebsiella pneumoniae", "conditions": "for Relative MIC / MIC of evolved line: Klebsiella pneumoniae ATCC 10031 (KP-SEN); for MIC: Klebsiella pneumoniae, read-out: MIC of evolved line, Klebsiella pneumoniae ATCC 10031 (KP-SEN)", "protocol": "as §1, §2, §3, §4, §5"}, "[4]": {"conditions": "Acinetobacter baumannii ATCC 17978 (AB-SEN), evolved line 1 versus ancestor"}, "[5]": {"conditions": "Acinetobacter baumannii ATCC 17978 (AB-SEN), evolved line 2 versus ancestor"}, "[6]": {"conditions": "Acinetobacter baumannii ATCC 17978 (AB-SEN), evolved line 3 versus ancestor"}, "[7]": {"conditions": "Escherichia coli ATCC 25922 (EC-SEN), evolved line 1 versus ancestor"}, "[8]": {"conditions": "Escherichia coli ATCC 25922 (EC-SEN), evolved line 2 versus ancestor"}, "[9]": {"conditions": "Escherichia coli ATCC 25922 (EC-SEN), evolved line 3 versus ancestor"}}, "note": "Read-outs that look alike come from different tables or passages of the source."}
{"smiles": "O=c1ccc2ncc(=O)n3c2n1C[C@H]3CN1CCC(NCc2cc3c(cn2)OCCC3)CC1", "note": "[Gepotidacin]", "values": [{"measurement": "Relative MIC", "setting": "[1]; [4]", "value": 16}, {"measurement": "Relative MIC", "setting": "[1]; [5]", "value": 4}, {"measurement": "Relative MIC", "setting": "[1]; [6]", "value": 16}, {"measurement": "MIC", "setting": "[1]; evolved line 2", "value": 8, "unit": "µg/mL"}, {"measurement": "Relative MIC", "setting": "[2]; E. coli NCTC 13846 (EC-MDR), evolved line 1, evolved vs ancestor", "value": 1}, {"measurement": "Relative MIC", "setting": "[2]; E. coli NCTC 13846 (EC-MDR), evolved line 2, evolved vs ancestor", "value": 1}, {"measurement": "Relative MIC", "setting": "[2]; E. coli NCTC 13846 (EC-MDR), evolved line 3, evolved vs ancestor", "value": 1}, {"measurement": "Relative MIC", "setting": "[2]; [7]", "value": 1}, {"measurement": "Relative MIC", "setting": "[2]; [8]", "value": 1}, {"measurement": "Relative MIC", "setting": "[2]; [9]", "value": 1}, {"measurement": "Relative MIC", "setting": "[3]; evolved line 1 versus ancestor", "value": 1}, {"measurement": "Relative MIC", "setting": "[3]; evolved line 2 versus ancestor", "value": 1}, {"measurement": "Relative MIC", "setting": "[3]; evolved line 3 versus ancestor", "value": 1}, {"measurement": "MIC", "setting": "[3]; evolved line 1", "value": 0.0625, "unit": "µg/mL"}, {"measurement": "MIC", "setting": "[3]; evolved line 2", "value": 0.0625, "unit": "µg/mL"}, {"measurement": "MIC", "setting": "[3]; evolved line 3", "value": 0.0625, "unit": "µg/mL"}]}
{"smiles": "CN(C)c1cc(CNCC(C)(C)C)c(O)c2c1C[C@H]1C[C@H]3[C@H](N(C)C)C(O)=C(C(N)=O)C(=O)[C@@]3(O)C(O)=C1C2=O", "note": "[Omadacycline]", "values": [{"measurement": "Relative MIC", "setting": "[1]; [4]", "value": 8}, {"measurement": "Relative MIC", "setting": "[1]; [5]", "value": 8}, {"measurement": "Relative MIC", "setting": "[1]; [6]", "value": 8}, {"measurement": "MIC", "setting": "[1]; evolved line 1", "value": 4, "unit": "µg/mL"}, {"measurement": "MIC", "setting": "[1]; evolved line 2", "value": 4, "unit": "µg/mL"}, {"measurement": "MIC", "setting": "[1]; evolved line 3", "value": 4, "unit": "µg/mL"}, {"measurement": "Relative MIC", "setting": "[2]; [7]", "value": 2}, {"measurement": "Relative MIC", "setting": "[2]; [8]", "value": 2}, {"measurement": "Relative MIC", "setting": "[2]; [9]", "value": 2}, {"measurement": "MIC", "setting": "[2]; evolved line 1", "value": 4, "unit": "µg/mL"}, {"measurement": "MIC", "setting": "[2]; evolved line 2", "value": 4, "unit": "µg/mL"}, {"measurement": "MIC", "setting": "[2]; evolved line 3", "value": 4, "unit": "µg/mL"}, {"measurement": "Relative MIC", "setting": "[3]; evolved line 1 versus ancestor", "value": 32}, {"measurement": "Relative MIC", "setting": "[3]; evolved line 2 versus ancestor", "value": 16}, {"measurement": "Relative MIC", "setting": "[3]; evolved line 3 versus ancestor", "value": 16}, {"measurement": "MIC", "setting": "[3]; evolved line 1", "value": 32, "unit": "µg/mL"}, {"measurement": "MIC", "setting": "[3]; evolved line 2", "value": 16, "unit": "µg/mL"}, {"measurement": "MIC", "setting": "[3]; evolved line 3", "value": 16, "unit": "µg/mL"}]}
{"smiles": "CC(C)c1ccc(Cn2ccc3c4c(N)nc(NC5CC5)nc4ccc32)cc1", "note": "[SCH79797]", "values": [{"measurement": "MIC of evolved line", "setting": "[1]; Acinetobacter baumannii ATCC 17978 (AB-SEN), evolved line 1", "value": 8, "unit": "µg/mL"}, {"measurement": "MIC of evolved line", "setting": "[1]; Acinetobacter baumannii ATCC 17978 (AB-SEN), evolved line 2", "value": 8, "unit": "µg/mL"}, {"measurement": "MIC of evolved line", "setting": "[1]; Acinetobacter baumannii ATCC 17978 (AB-SEN), evolved line 3", "value": 8, "unit": "µg/mL"}, {"measurement": "Relative MIC", "setting": "[1]; [4]", "value": 2}, {"measurement": "Relative MIC", "setting": "[1]; [5]", "value": 2}, {"measurement": "Relative MIC", "setting": "[1]; [6]", "value": 2}, {"measurement": "MIC of evolved line", "setting": "[1]; Acinetobacter baumannii ATCC BAA 1605 (AB-MDR), evolved line 2", "value": 4, "unit": "µg/mL"}, {"measurement": "MIC of evolved line", "setting": "[1]; Acinetobacter baumannii ATCC BAA 1605 (AB-MDR), evolved line 1", "value": 2, "unit": "µg/mL"}, {"measurement": "Relative MIC", "setting": "[1]; Acinetobacter baumannii ATCC BAA 1605 (AB-MDR), evolved line 1 versus ancestor", "value": 1}, {"measurement": "Relative MIC", "setting": "[1]; Acinetobacter baumannii ATCC BAA 1605 (AB-MDR), evolved line 2 versus ancestor", "value": 1}, {"measurement": "MIC of evolved line", "setting": "[1]; Acinetobacter baumannii ATCC BAA 1605 (AB-MDR), evolved line 3", "value": 4, "unit": "µg/mL"}, {"measurement": "Relative MIC", "setting": "[1]; Acinetobacter baumannii ATCC BAA 1605 (AB-MDR), evolved line 3 versus ancestor", "value": 1}, {"measurement": "Relative MIC", "setting": "[1]; FoR assay, Acinetobacter baumannii ATCC 17978 (AB-SEN), evolved line 1", "value": 2}, {"measurement": "Relative MIC", "setting": "[1]; FoR assay, Acinetobacter baumannii ATCC 17978 (AB-SEN), evolved line 2", "value": 2}, {"measurement": "Relative MIC", "setting": "[1]; FoR assay, Acinetobacter baumannii ATCC 17978 (AB-SEN), evolved line 3", "value": 2}, {"measurement": "Relative MIC", "setting": "[1]; FoR assay, Acinetobacter baumannii ATCC BAA 1605 (AB-MDR), evolved line 1", "value": 1}, {"measurement": "Relative MIC", "setting": "[1]; FoR assay, Acinetobacter baumannii ATCC BAA 1605 (AB-MDR), evolved line 2", "value": 1}, {"measurement": "Relative MIC", "setting": "[1]; FoR assay, Acinetobacter baumannii ATCC BAA 1605 (AB-MDR), evolved line 3", "value": 1}, {"measurement": "MIC of evolved line", "setting": "[2]; E. coli ATCC 25922 (EC-SEN), evolved line 1", "value": 8, "unit": "µg/mL"}, {"measurement": "Relative MIC", "setting": "[2]; E. coli ATCC 25922 (EC-SEN), evolved line 1, evolved vs ancestor", "value": 2}, {"measurement": "MIC of evolved line", "setting": "[2]; E. coli ATCC 25922 (EC-SEN), evolved line 2", "value": 8, "unit": "µg/mL"}, {"measurement": "Relative MIC", "setting": "[2]; E. coli ATCC 25922 (EC-SEN), evolved line 2, evolved vs ancestor", "value": 2}, {"measurement": "MIC of evolved line", "setting": "[2]; E. coli ATCC 25922 (EC-SEN), evolved line 3", "value": 8, "unit": "µg/mL"}, {"measurement": "Relative MIC", "setting": "[2]; E. coli ATCC 25922 (EC-SEN), evolved line 3, evolved vs ancestor", "value": 2}, {"measurement": "Relative MIC", "setting": "[2]; FoR assay, Escherichia coli ATCC 25922 (EC-SEN), evolved line 1", "value": 2}, {"measurement": "Relative MIC", "setting": "[2]; FoR assay, Escherichia coli ATCC 25922 (EC-SEN), evolved line 2", "value": 2}, {"measurement": "Relative MIC", "setting": "[2]; FoR assay, Escherichia coli ATCC 25922 (EC-SEN), evolved line 3", "value": 2}, {"measurement": "Relative MIC", "setting": "[3]; FoR assay, evolved line 1", "value": 1}, {"measurement": "Relative MIC", "setting": "[3]; FoR assay, evolved line 2", "value": 1}, {"measurement": "Relative MIC", "setting": "[3]; FoR assay, evolved line 3", "value": 1}, {"measurement": "MIC of evolved line", "setting": "[3]; evolved line 1", "value": 4, "unit": "µg/mL"}, {"measurement": "MIC of evolved line", "setting": "[3]; evolved line 2", "value": 4, "unit": "µg/mL"}, {"measurement": "MIC of evolved line", "setting": "[3]; evolved line 3", "value": 4, "unit": "µg/mL"}, {"measurement": "Relative MIC", "setting": "[3]; evolved line 1 versus ancestor", "value": 1}, {"measurement": "Relative MIC", "setting": "[3]; evolved line 2 versus ancestor", "value": 1}, {"measurement": "Relative MIC", "setting": "[3]; evolved line 3 versus ancestor", "value": 1}]}
